Assays:
[1] = system: GnRH induced secretion of LH; assay: GnRH induced secretion of LH in ovariectomized female rats; format: in vivo; conditions: single injection; ovariectomized female rat
Procedure: Applicants also tested these compounds using an in vivo model. The test system initially chosen was the ovariectomized female rat. […] During week 2, release of LH was reduced by 50% in the GnRH-A treated group (controls), but by >90% in the GnRH-A-T group. […] It might however be the basis for a temporary sterilization. Based upon this finding, a second experiment was conducted to examine the effect of 4 injections of a pokeweed antiviral sterilization conjugate at 3-day intervals on the ability of ovariectomized rats to release LH.
Applicants also tested the PAP-carbodiimide-[D-Lys^6, desGly^10]-GnRH-ethylamide conjugate in ovariectomized female rats.
FIG. 1B indicates the results of a challenge by one of applicants' compounds to ovariectomized rats. […] The open space above the bars indicates the amount of LH released in response to a GnRH challenge. The challenges were administered on the first day of treatment and again 4 weeks later.

[2] = system: ovine pituitary cells; assay: Total culture LH after exposure to GnRH and toxin conjugates with or without lysosomal agents; format: cell-based; conditions: 24 hour exposure, wash, further 24 hour culture in standard media
Procedure: Applicants then tested the more promising Barley-2IT-[D-Lys^6, desGly^10]-GnRH-ethylamide conjugate in similar assay systems. […] Ovine pituitary cells were again placed in culture with various agents and the total LH in the cells and media determined after a 24 hour exposure, wash, and further 24 hour culture in standard media.

[3] = system: ovine pituitary cells; assay: LH synthesis by ovine pituitary cells in suspension culture; format: cell-based; conditions: cells incubated with treatment for 16 hours; LH synthesis during 24 hour culture after removal
Procedure: In addition, the conjugation procedure reduces the toxicity of the pokeweed antiviral protein by 99.5 in a cell-free translation system. […] The activity of this conjugate was also tested in a pituitary cell culture system. In this system, pituitary cells were incubated with the sterilization agent conjugated to [D-Lys^6, des-Gly^10]-GnRH-ethylamide for 16 hours. After incubation, the sterilization agents were removed from the incubation media by extensive washing and the cells were then cultured for an additional 24 hours. The increase in total LH, i.e., that present in the media plus that in the cells during the 24 hour period, represents the ability of the treated cells to synthesize LH. […]
The effect of these compounds on ovine pituitary cells in suspension culture was measured. […] After pretreatment, the cells were washed 6 times, counted, and small aliquots removed for testing. […] 3 ml of cold Gel-PBS was added to each tube, cells were centrifuged, and the media was measured for LH content. The four pretreatment groups were evaluated for their ability to synthesize and secrete LH immediately after treatment and after the 24 hour recovery period.

Substance | reduction of release of LH, week 2 [1] | Total LH [2] | SYNTHESIS of LH [3]
pyroGlu-His-Trp-Ser-Tyr-D-Lys-Leu-Arg-Pro-ethylamide [[D-Lys^6, des-Gly^10]-GnRH-ethylamide] | 50% | 1.62 Ng/10^5 cells in Culture | –
gonadotropin-releasing hormone (QHWSYGLRPG; Gonadoliberin-1; UniProt P01148 24-33, looked up) [GnRH, native decapeptide hormone] | – | – | 545.5 ng per 5 × 10^6 cells
